According to EPA's ToxRefDB 2:

Columns and labels:
rat [1] = details: Fertility (Segment I), Oral, Gavage/Intubation, dose end: 1 generation
rat [2] = details: Prenatal developmental toxicity study; sprague dawley; Oral; Gavage/Intubation; dose end: 18 GD; group: maternal; systemic / in life observation / body weight / body weight gain + systemic / in life observation / food consumption / food consumption
rabbit [3] = details: Sub-acute repeat dose toxicity, Oral, Gavage/Intubation, dose end: 13 day
rat [4] = details: Fertility (Segment I), Oral, Gavage/Intubation, dose end: 1 generation, group: parental
rabbit [5] = details: Prenatal developmental toxicity study; Oral; Gavage/Intubation; dose end: 19 GD; group: maternal; reproductive / reproductive performance / aborted / aborted + systemic / in life observation / food consumption / food consumption + …
rat [6] = details: Prenatal developmental toxicity study, sprague dawley, Oral, Gavage/Intubation, dose end: 15 GD
mouse [7] = details: Carcinogenicity; cd1; Oral; Feed; dose end: 18 month; group: systemic; systemic / organ weight / liver / absolute + systemic / organ weight / liver / relative to body weight + systemic / pathology microscopic / …
rat [8] = details: Multigenerational reproductive toxicity study; other; Oral; Feed; dose end: 3 generation; group: parental; systemic / in life observation / body weight / body weight
rat [9] = details: Subchronic oral toxicity in rodents, sprague dawley, Feed, dose end: 90 day, group: systemic
rat [10] = details: Multigenerational reproductive toxicity study, other, Oral, Feed, dose end: 2 generation
mouse [11] = details: Carcinogenicity; cd1; Oral; [Not Specified]; dose end: 79 week; group: systemic; systemic / hematology / erythrocyte (rbc) count differential / erythrocyte (rbc) + systemic / hematology / hematocrit (hct) / hematocrit (…
rat [12] = details: Combined chronic toxicity/carcinogenicity, sprague dawley, Oral, Feed, dose end: 106 week, group: systemic
dog [13] = details: Chronic toxicity; beagle; Oral; Capsule; dose end: 52 week; group: systemic; systemic / clinical chemistry / alkaline phosphatase (alp/alk) / alkaline phosphatase (alp/alk) + systemic / hematology / blood clotting / …
rat [14] = details: Subchronic oral toxicity in rodents, other, Feed, dose end: 13 week
dog [15] = details: Subchronic oral toxicity in nonrodent, beagle, Capsule, dose end: 13 week, group: systemic, systemic / hematology / blood clotting / blood clotting - activated partial thromboplastin time
[16] = group: maternal, reproductive / reproductive performance / estrous cycle / abnormal
[17] = group: parental, systemic / in life observation / food consumption / food consumption
[18] = group: maternal, reproductive / reproductive performance / aborted / aborted + reproductive / reproductive performance / resorptions / resorptions
[19] = group: systemic, systemic / in life observation / body weight / body weight gain + systemic / in life observation / food consumption / food consumption
[20] = systemic / in life observation / body weight / body weight + systemic / in life observation / food consumption / food consumption + systemic…
[21] = group: developmental, developmental / developmental malformation / bone / delayed ossification
[22] = group: maternal, systemic / in life observation / body weight / body weight gain
[23] = systemic / urinalysis / sediment microscopic / epithelial cells
[24] = systemic / urinalysis / sediment microscopic / epithelial cells + systemic / organ weight / liver / relative to body weight
[25] = group: offspring, developmental / offspring survival late / viability index / viability index
[26] = group: offspring, developmental / offspring survival late / viability index / viability index + systemic / in life observation / body weight / offspring (pup…
[27] = group: parental, systemic / organ weight / kidney / absolute
[28] = group: parental, systemic / organ weight / kidney / absolute + systemic / organ weight / kidney / relative to body weight + systemic / organ weight / liver…
[29] = systemic / organ weight / spleen / absolute + systemic / organ weight / liver / relative to body weight
[30] = group: cholinesterase, cholinesterase / cholinesterase / cholinesterase / cholinesterase (che)
[31] = group: systemic, systemic / organ weight / liver / relative to body weight + systemic / clinical chemistry / [other] / [other] + systemic / in life …

In the case of `CNCc1ccc(NC(=O)c2c[nH]c3c2C(=O)CCC3)cc1`, the LEL (rat [1]; [16]) was 250 mg/kg/day, the LOAEL (rat [1]; [16]) was greater than 1000 mg/kg/day and the NEL (rat [1]; [16]) was 25 mg/kg/day. The NOAEL (rat [1]; [16]) was no less than 1000 mg/kg/day, the LEL (rat [1]; [17]) was 1000 mg/kg/day and the LOAEL (rat [1]; [17]) was greater than 1000 mg/kg/day. The NEL (rat [1]; [17]) was 250 mg/kg/day, the NOAEL (rat [1]; [17]) was no less than 1000 mg/kg/day and the LEL (rat [2]) was 250 mg/kg/day. The LOAEL (rat [2]) was greater than 1000 mg/kg/day, the NEL (rat [2]) was 25 mg/kg/day and the NOAEL (rat [2]) was no less than 1000 mg/kg/day. For the same molecule, the LEL (rabbit [3]; [18]) was 300 mg/kg/day, the LOAEL (rabbit [3]; [18]) was greater than 300 mg/kg/day and the NEL (rabbit [3]; [18]) was 150 mg/kg/day. The NOAEL (rabbit [3]; [18]) was no less than 300 mg/kg/day, the LEL (rabbit [3]; [19]) was 300 mg/kg/day and the LOAEL (rabbit [3]; [19]) was greater than 300 mg/kg/day. It also gave an NEL (rabbit [3]; [19]) of 150 mg/kg/day, an NOAEL (rabbit [3]; [19]) of no less than 300 mg/kg/day and an LOAEL (rat [4]; [20]) greater than 1000 mg/kg/day. For the same molecule, the NEL (rat [4]; [20]) was 25 mg/kg/day, the NOAEL (rat [4]; [20]) was no less than 1000 mg/kg/day and the LEL (rat [4]; systemic / in life observation / body weight / body weight + systemic / pathology gross / intestine large / dilatation) was 250 mg/kg/day. It also gave an LEL (rabbit [5]) of 300 mg/kg/day, an LOAEL (rabbit [5]) greater than 300 mg/kg/day and an NEL (rabbit [5]) of 100 mg/kg/day. For the same molecule, the NOAEL (rabbit [5]) was no less than 300 mg/kg/day.

For `O=C(O)Cc1c(Cl)ccc(Cl)c1Cl` [Chlorfenac], the LEL (rat [6]; [21]) was 300 mg/kg/day, the LOAEL (rat [6]; [21]) was greater than 300 mg/kg/day and the NEL (rat [6]; [21]) was 60 mg/kg/day. For the same molecule, the NOAEL (rat [6]; [21]) was no less than 300 mg/kg/day, the LEL (rat [6]; [22]) was 300 mg/kg/day and the LOAEL (rat [6]; [22]) was greater than 300 mg/kg/day. For the same molecule, the NEL (rat [6]; [22]) was 60 mg/kg/day, the NOAEL (rat [6]; [22]) was no less than 300 mg/kg/day and the LEL (mouse [7]) was 600 mg/kg/day. It also gave an LOAEL (mouse [7]) greater than 600 mg/kg/day, an NEL (mouse [7]) of 300 mg/kg/day and an NOAEL (mouse [7]) of no less than 600 mg/kg/day. The LEL (rat [8]) was 125 mg/kg/day, the LOAEL (rat [8]) was greater than 125 mg/kg/day and the NEL (rat [8]) was 25 mg/kg/day. The NOAEL (rat [8]) was no less than 125 mg/kg/day.

`CCCCCOC(=O)COc1cc(N2C(=O)C3=C(CCCC3)C2=O)c(F)cc1Cl` [Flumiclorac-pentyl] showed an LEL (rat [9]; [23]) of 659 mg/kg/day, an LOAEL (rat [9]; [23]) of 659 mg/kg/day and an NEL (rat [9]; [24]) of 64.9 mg/kg/day. It also gave an NOAEL (rat [9]; [24]) of 64.9 mg/kg/day, an LEL (rat [10]; [25]) of 829 mg/kg/day and an LOAEL (rat [10]; [25]) of 829 mg/kg/day. The NEL (rat [10]; [26]) was 18 mg/kg/day, the NOAEL (rat [10]; [26]) was 18 mg/kg/day and the LEL (rat [10]; [27]) was 18 mg/kg/day. For the same molecule, the NEL (rat [10]; [27]) was less than 18 mg/kg/day, the LOAEL (rat [10]; [28]) was 829 mg/kg/day and the NOAEL (rat [10]; [28]) was 18 mg/kg/day. For the same molecule, the LEL (mouse [11]) was 308 mg/kg/day, the LOAEL (mouse [11]) was 308 mg/kg/day and the NEL (mouse [11]) was 31.5 mg/kg/day. For the same molecule, the NOAEL (mouse [11]) was 31.5 mg/kg/day, the LOAEL (rat [12]; systemic / organ weight / liver / relative to body weight + systemic / organ weight / kidney / absolute + systemic / organ weight / liver / …) was 360 mg/kg/day and the LEL (rat [12]; [29]) was 3.5 mg/kg/day. It also gave an NEL (rat [12]; [29]) of less than 3.5 mg/kg/day, an NOAEL (rat [12]; systemic / organ weight / spleen / absolute + systemic / organ weight / liver / relative to body weight + systemic / organ weight / kidney…) of 35.4 mg/kg/day and an LEL (dog [13]) of 1000 mg/kg/day. The LOAEL (dog [13]) was 1000 mg/kg/day, the NEL (dog [13]) was 100 mg/kg/day and the NOAEL (dog [13]) was 100 mg/kg/day. It also gave an LEL (rat [14]; [30]) of 73.8 mg/kg/day, an LOAEL (rat [14]; [30]) of 73.8 mg/kg/day and an NEL (rat [14]; [30]) of 7.4 mg/kg/day. The NOAEL (rat [14]; [30]) was 7.4 mg/kg/day, the LEL (rat [14]; group: systemic, systemic / clinical chemistry / [other] / [other] + systemic / in life observation / food consumption / food efficiency + systemic / in life…) was 664 mg/kg/day and the LOAEL (rat [14]; group: systemic, systemic / organ weight / liver / relative to body weight) was 1360 mg/kg/day. It also gave an NEL (rat [14]; [31]) of 67 mg/kg/day, an NOAEL (rat [14]; [31]) of 664 mg/kg/day and an LEL (dog [15]) of 100 mg/kg/day. It also gave an LOAEL (dog [15]) of 100 mg/kg/day, an NEL (dog [15]) of 10 mg/kg/day and an NOAEL (dog [15]) of 10 mg/kg/day.
